Measured values from patent US4824834A, “Pyrazolotriazine compounds” (Otsuka Pharmaceutical Company, Limited, priority 1986, dated 1989).

Assays:
uric acid in serum = experiment: Lowering effect of test compound on the level of uric acid in serum (in vivo, oral administration); set-up: species or system mouse (normal male ICR mice); details: Mus musculus, 4 hours after administration, male ICR mice, suspended in 0.5% CMC-Na, read-out: in vivo Lowering rate (%) of uric acid in serum (in 4 hours)
Description: Experiment 2 (In Vivo: Oral Administration)
(1) Animals, Method of Administration and Sampling of Serum
Normal male ICR mice (weighting about 30 g), were provided normal diet and tap water ad libitum. A test compound suspended in 0.5% CMC-Na was administered orally to the mice (each group: 6 mice) in a dose of 5 mg/kg.
(2) Measurement of Amount of Uric Acid in Serum
To the serum (200 μl) was added 10% perchloric acid (100 μl), and the mixture was centrifuged. To the supernatant fluid (100 μl) was added 0.2M Na2 HPO4 (200 μl), and the mixture (20 μl) was analyzed by HPLC to measure the amount of uric acid. The HPLC was carried out under the following conditions.
Column: Cosmosil packed column (.phi. 4.6 mm×150 mm, 5C18 -300)
(§1) Eluting solution: 10 mM phosphate buffer (pH 6.0)
(§2) Retention time: 2.4 minutes (uric acid)
(3) Lowering Effect of Test Compound on the Level of Uric Acid in Serum
The lowering rate of uric acid in serum was calculated by the following equation. [formula]

Xanthine oxidase = molecular target: T1, Xanthine oxidase (Mus musculus, UniProt Q00519); experiment: Xanthine oxidase inhibition (in vitro), mouse small intestine xanthine oxidase solution, HPLC of uric acid; format: biochemical, mouse (ICR strain mice; details: xanthine substrate, incubated at 37° C. for 5 minutes; HPLC UV 292 nm
T1 construct: The small intestine was homogenized in 4-fold volume of cooled phosphate buffered saline solution (PBS) and then centrifuged; from tissue; host or cells: small intestine of ICR strain mice; dialysed supernatant of a 105,000 g centrifugation
T1 sequence (Q00519 whole entry): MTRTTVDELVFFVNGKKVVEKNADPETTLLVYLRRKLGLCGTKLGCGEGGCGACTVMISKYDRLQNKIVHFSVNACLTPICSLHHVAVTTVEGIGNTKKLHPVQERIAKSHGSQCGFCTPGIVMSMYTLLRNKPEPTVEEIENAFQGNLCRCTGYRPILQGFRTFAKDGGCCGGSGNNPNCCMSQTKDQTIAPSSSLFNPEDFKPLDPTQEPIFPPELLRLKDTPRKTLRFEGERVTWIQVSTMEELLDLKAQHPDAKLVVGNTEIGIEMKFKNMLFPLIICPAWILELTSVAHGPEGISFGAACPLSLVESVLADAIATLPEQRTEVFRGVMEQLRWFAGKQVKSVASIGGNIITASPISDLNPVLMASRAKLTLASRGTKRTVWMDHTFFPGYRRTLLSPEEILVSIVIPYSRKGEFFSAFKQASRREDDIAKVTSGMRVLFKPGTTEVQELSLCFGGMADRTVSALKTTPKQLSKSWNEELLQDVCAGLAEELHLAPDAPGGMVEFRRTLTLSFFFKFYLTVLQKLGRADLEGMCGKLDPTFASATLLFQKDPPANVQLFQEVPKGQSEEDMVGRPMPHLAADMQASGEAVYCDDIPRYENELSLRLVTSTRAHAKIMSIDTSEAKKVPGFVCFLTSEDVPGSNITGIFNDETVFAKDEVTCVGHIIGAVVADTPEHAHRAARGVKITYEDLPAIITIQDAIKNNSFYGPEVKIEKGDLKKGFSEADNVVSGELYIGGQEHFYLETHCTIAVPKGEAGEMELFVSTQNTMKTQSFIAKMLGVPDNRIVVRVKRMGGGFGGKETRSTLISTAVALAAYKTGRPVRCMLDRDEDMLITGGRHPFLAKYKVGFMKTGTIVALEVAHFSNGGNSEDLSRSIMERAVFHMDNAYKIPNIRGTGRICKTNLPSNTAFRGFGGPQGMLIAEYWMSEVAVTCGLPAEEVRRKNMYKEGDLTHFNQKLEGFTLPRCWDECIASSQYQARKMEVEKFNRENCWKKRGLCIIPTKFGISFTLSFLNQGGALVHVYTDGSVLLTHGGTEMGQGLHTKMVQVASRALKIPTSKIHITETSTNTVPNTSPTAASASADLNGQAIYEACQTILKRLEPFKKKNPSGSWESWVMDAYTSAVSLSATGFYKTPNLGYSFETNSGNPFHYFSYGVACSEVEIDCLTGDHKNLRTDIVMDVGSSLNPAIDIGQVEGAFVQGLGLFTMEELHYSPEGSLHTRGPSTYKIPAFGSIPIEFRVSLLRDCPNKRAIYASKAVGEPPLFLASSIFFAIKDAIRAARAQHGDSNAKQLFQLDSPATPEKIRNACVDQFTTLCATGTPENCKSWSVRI
Description: (1) Preparation of Xanthine Oxidase Solution
ICR strain mice were decapitated and the small intestine of each mouse was rapidly perfused with cooled physiological saline solution and removed. The small intestine was homogenized in 4-fold volume of cooled phosphate buffered saline solution (PBS) and then centrifuged at 105,000 g for 60 minutes. The supernatant fluid was dialyzed overnight against PBS. The dialyzed solution thus prepared was stored at -20° C. until used.
(2) Preparation of the Solution Containing the Present Compound
The compound of this invention was dissolved in DMSO (200 μl) and 2N NaOH (100 μl), and then PBS was added to prepare a solution (25 ml) containing 10^-3 M of the compound of this invention. This solution was diluted with PBS to prepare solutions containing the compound in the concentration of 10^-4, 10^-5, 10^-6, 10^-7, 10^-8, 10^-9, 10^-10, and 10^-11 M, respectively.
(3) Method for the Measurement
The assay mixture, consisted of the composition mentioned below, was incubated at 37° C. for 5 minutes. The reaction was stopped by heating in boiling water for one minute. Twenty microliters of the supernatant was analyzed by high performance liquid chromatography (HPLC) under the conditions mentioned below.
Xanthine oxidase solution (diluted in 4-folds with PBS): 200 μl
Solution containing the present compound: 200 μl
Column: osmosil packed column (.phi. 4. mm×150 mm, 5C18×300)
as §1, §2
(4) Percent Inhibition of the Compound Against Xanthine Oxidase
The percent inhibition was calculated by the following equation. [formula]
As to each of the solutions containing the present compound as prepared in the above (2), the percent inhibition was calculted, and IC50 values were obtained from a plot of the percent inhibition against the log of the concentration of the compound of this invention.

| Structure (SMILES) | inhibition in vivo at 5 mg/kg (uric acid in serum) | IC50 (Xanthine oxidase) |
| --- | --- | --- |
| Oc1ncnc2[nH]ncc12 [Allopurinol, 4-hydroxypyrazolo[3,4-d]pyrimidine, reference compound] | 34% | – |
| CCSc1ccc(-c2cnn3c(O)ncnc23)cc1 [Example 17, 8-(4-Ethylthiophenyl)-4-hydroxypyrazolo[1,5-a]-1,3,5-triazine] | – | 30 nM |
| Oc1ncnc2c(-c3ccc(Sc4ccccc4)cc3)cnn12 [Example 19, 4-Hydroxy-8-(4-phenylthiophenyl)pyrazolo[1,5-a]-1,3,5-triazine] | – | 160 nM |
| Cc1ccc(Sc2ccc(-c3cnn4c(O)ncnc34)cc2)cc1 [Example 21, 4-Hydroxy-8-[4-(4-methylphenylthio)phenyl]pyrazolo[1,5-a]-1,3,5-triazine] | – | 310 nM |
| CSc1ccc(-c2cnn3c(O)ncnc23)cc1C [Example 30, 4-Hydroxy-8-(3-methyl-4-methylthiophenyl)pyrazolo[1,5-a]-1,3,5-triazine] | 47% | 71 nM |
| CCSc1ccc(-c2cnn3c(O)ncnc23)cc1C [Example 31, 8-(4-Ethylthio-3-methylphenyl)-4-hydroxypyrazolo[1,5-a]-1,3,5-triazine] | 63.5% | 10 nM |
| Cc1cc(-c2cnn3c(O)ncnc23)ccc1Sc1ccccc1 [Example 33, 4-Hydroxy-8-(3-methyl-4-phenylthiophenyl)pyrazolo[1,5-a]-1,3,5-triazine] | 62% | 18 nM |
| CCc1cc(-c2cnn3c(O)ncnc23)ccc1SC [Example 39, 8-(3-Ethyl-4-methylthiophenyl)-4-hydroxypyrazolo[1,5-a]-1,3,5-triazine] | – | 45 nM |
| CSc1ccc(-c2cnn3c(O)ncnc23)cc1SC [Example 41, 8-[(3,4-Bismethylthio)phenyl]-4-hydroxypyrazolo[1,5-a]-1,3,5-triazine] | 60.1% | 24 nM |
| CSc1ccc(-c2cnn3c(O)ncnc23)cc1Cl [Example 43, 8-(3-Chloro-4-methylthiophenyl)-4-hydroxypyrazolo[1,5-a]-1,3,5-triazine] | 60.6% | 10 nM |
| Oc1ncnc2c(-c3cc(Cl)c(OCc4ccccc4)c(Cl)c3)cnn12 [Example 52, 8-(4-Benzyloxy-3,5-dichlorophenyl)-4-hydroxypyrazolo[1,5-a]-1,3,5-triazine] | – | 53 nM |
| Oc1ncnc2c(-c3cc(Cl)c(Cl)c(Cl)c3)cnn12 [Example 53, 4-Hydroxy-8-(3,4,5-trichlorophenyl)pyrazolo[1,5-a]-1,3,5-triazine] | – | 15 nM |
| CSc1cc(F)c(-c2cnn3c(O)ncnc23)cc1C [Example 54, 8-(2-Fluoro-5-methyl-4-methylthiophenyl)-4hydroxypyrazolo[1,5-a]-1,3,5-triazine] | 65.2% | 550 nM |
| O=C(c1ccccc1)c1ccc(-c2cnn3c(O)ncnc23)cc1 [Example 70, 8-(4-Benzoylphenyl)-4-hydroxypyrazolo[1,5-a]-1,3,5-triazine] | – | 5.2 nM |
| Cc1cc(-c2cnn3c(O)ncnc23)ccc1[N+](=O)[O-] [Example 73, 4-Hydroxy-8-(3-methyl-4-nitrophenyl)pyrazolo[1,5-a]-1,3,5-triazine] | – | 40 nM |
| COc1cc(-c2cnn3c(O)ncnc23)ccc1[N+](=O)[O-] [Example 74, 4-Hydroxy-8-(3-methoxy-4-nitrophenyl)pyrazolo[1,5-a]-1,3,5-triazine] | – | 50 nM |
| Cc1ccc(NS(=O)(=O)c2ccc(-c3cnn4c(O)ncnc34)cc2)cc1 [Example 95, 4-Hydroxy-8-[4-(4-methylphenylaminosulfonyl)phenyl]pyrazolo[1,5-a]-1,3,5-triazine] | – | 3.6 nM |
| CCc1ccc(NS(=O)(=O)c2ccc(-c3cnn4c(O)ncnc34)cc2)cc1 [Example 96, 8-[4-(4-Ethylphenylaminosulfonyl)phenyl]-4-hydroxypyrazolo[1,5-a]-1,3,5-triazine] | – | 0.1 nM |

| Structure (SMILES) | inhibition in vivo at 5 mg/kg (uric acid in serum) | IC50 (Xanthine oxidase) |
| --- | --- | --- |
| CCc1cccc(NS(=O)(=O)c2ccc(-c3cnn4c(O)ncnc34)cc2)c1 [Example 97, 8-[4-(3-Ethylphenylaminosulfonyl)phenyl]-4-hydroxypyrazolo[1,5-a]-1,3,5-triazine] | – | 0.45 nM |
| CC(C)c1ccc(NS(=O)(=O)c2ccc(-c3cnn4c(O)ncnc34)cc2)cc1 [Example 99, 4-Hydroxy-8-[4-(4-isopropylphenylaminosulfonyl)phenyl]pyrazolo[1,5-a]-1,3,5-triazine] | – | 0.14 nM |
| CC(C)(C)c1ccc(NS(=O)(=O)c2ccc(-c3cnn4c(O)ncnc34)cc2)cc1 [Example 100, 8-[4-(4-t-Butylphenylaminosulfonyl)phenyl]-4hydroxypyrazolo[1,5-a]-1,3,5-triazine] | – | 0.75 nM |
| CC(O)c1ccc(NS(=O)(=O)c2ccc(-c3cnn4c(O)ncnc34)cc2)cc1 (stereo not drawn) [Example 101, 4-Hydroxy-8-[4-(4-α-hydroxyethylphenylaminosulfonyl)phenyl]pyrazolo[1,5-a]-1,3,5-triazine] | – | 54 nM |
| COC(=O)c1ccc(NS(=O)(=O)c2ccc(-c3cnn4c(O)ncnc34)cc2)cc1 [Example 105, 4-Hydroxy-8-[4-(4-methoxycarbonylphenylaminosulfonyl)phenyl]pyrazolo[1,5-a]-1,3,5-triazine] | – | 2.2 nM |
| O=S(=O)(Nc1cccc(O)c1)c1ccc(-c2cnn3c(O)ncnc23)cc1 [Example 107, 4-Hydroxy-8-[4-(3-hydroxyphenylaminosulfonyl)phenyl]pyrazolo[1,5-a]-1,3,5-triazine] | – | 64 nM |
| O=S(=O)(Nc1ccc(Cl)cc1)c1ccc(-c2cnn3c(O)ncnc23)cc1 [Example 109, 8-[4-(4-Chlorophenylaminosulfonyl)phenyl]-4hydroxypyrazolo[1,5-a]-1,3,5-triazine] | – | 3.6 nM |
| COC(=O)c1ccc(NS(=O)(=O)c2ccc(-c3cnn4c(O)ncnc34)cc2)cc1O [Example 112] | – | 6.5 nM |
| COC(=O)c1ccc(NS(=O)(=O)c2ccc(-c3cnn4c(O)ncnc34)cc2)cc1OC [Example 113, 4-Hydroxy-8-[4-(3-methoxy-4-methoxycarbonylphenylaminosulfonyl)phenyl]pyrazolo[1,5-a]-1,3,5-triazine] | – | 34 nM |
| O=S(=O)(NCc1cccs1)c1ccc(-c2cnn3c(O)ncnc23)cc1 [Example 134, 4-Hydroxy-8-[4-(2-thienylmethylaminosulfonyl)phenyl]pyrazolo[1,5-a]-1,3,5-triazine] | – | 76 nM |
| CN(C)S(=O)(=O)c1ccc(-c2cnn3c(O)ncnc23)cc1Cl [Example 136, 8-(3-Chloro-4-dimethylaminosulfonylphenyl)-4-hydroxypyrazolo[1,5-a]-1,3,5-triazine] | – | 32 nM |
| Cc1cc(-c2cnn3c(O)ncnc23)ccc1S(=O)(=O)N(C)C [Example 138, 8-(4-Dimethylaminosulfonyl-3-methylphenyl)-4hydroxypyrazolo[1,5-a]-1,3,5-triazine] | – | 39 nM |
| Cc1cc(-c2cnn3c(O)ncnc23)ccc1Br [Example 142, 8-(4-Bromo-3-methylphenyl)-4-hydroxypyrazolo[1,5-a]-1,3,5-triazine] | – | 52 nM |
| Oc1ncnc2c(-c3ccc(Br)c(Cl)c3)cnn12 [Example 143, 8-(4-Bromo-3-chlorophenyl)-4-hydroxypyrazolo[1,5-a]-1,3,5-triazine] | – | 36 nM |
| CSc1ccc(-c2cnn3c(O)ncnc23)cc1Br [Example 146, 8-(3-Bromo-4-methylthiophenyl)-4-hydroxypyrazolo[1,5-a]-1,3,5-triazine] | 47% | 2.7 nM |
| Oc1ncnc2c(-c3ccc(Sc4ccccc4)c(Cl)c3)cnn12 [Example 167, 8-(3-Chloro-4-phenylthiophenyl)-4-hydroxypyrazolo[1,5-a]-1,3,5-triazine] | – | 5 nM |
| [O-][S+](c1ccccc1)c1ccc(-c2cnn3c(O)ncnc23)cc1 (stereo not shown) [Example 170, 4-Hydroxy-8-(4-phenylsulfinylphenyl)pyrazolo[1,5-a]-1,3,5-triazine] | 57.2% | 8 nM |
